The values that follow come from US10940110B2, “Method and system for the treatment of chronic COPD with nebulized anticholinergic administrations” (Sunovion Respiratory Development Inc., priority 2008, dated 2021).

Where only a bound is given, the exact number is not on record here.

The test deals with patients with COPD. Particulars: 200 μg.
The mark [1] stands for this setting: high efficiency nebulizer, 24 hour time point.

Experimental: GIS 200 μg/0.5 mL oral inhalation via eFlow.
GIS 75 μg/0.5 mL oral inhalation via eFlow; 2. GIS 500 μg/0.5 mL oral; 3. GIS 1000 n/0.5 mL oral inhalation via eFlow.
The primary efficacy variable was serial spirometry throughout the 36 hour period after dosing. The spirometry assessments include forced expiratory volume in one second (FEV1), forced vital capacity (FVC), peak expiratory flow rate (PEFR), FEV1% of predicted normal.

As to `C[N+]1(C)CCC(OC(=O)C(O)(c2ccccc2)C2CCCC2)C1` (centres unmarked) [glycopyrrolate, 3-[(cyclopentylhydroxyphenylacetyl)oxy]-1,1-dimethylpyrrolidinium], the “increase in FEV1 above baseline (% change from baseline)” value (conventional jet nebulizer, 12 hr time point and beyond) is no more than 10%. Further, the “increase in FEV1 above baseline” value (conventional jet nebulizer, any time point after 12 hr) is listed as no more than 100 mL. The “mean improvement in peak lung function (peak FEV1) compared to the same dose in the conventional jet nebulizer” value (high efficiency nebulizer vs conventional jet nebulizer) is reported as “about 45 mL”. Moreover, under setting [1], the “improvement in FEV1 above baseline (% change from baseline)” value is listed as “greater than 10%” and the “improvement in lung function, FEV1 above baseline” value is “greater than 100 mL”.
